From patent US8940766B2, “Methods for preventing and/or treating lysosomal storage disorders” (Amicus Therapeutics, Inc., priority 2009, dated 2015)

What was measured:
[1] = biological target: T1, lysosomal GCase (Homo sapiens, UniProt P04062); experiment: In situ washout assay in fibroblasts (recovery of lysosomal GCase activity after compound removal); type: cell-based; settings: fibroblasts treated at IC90 for 16-24 hours, then drug-free medium; single exponential fit
T1 construct: assayed in situ using fibroblasts established from a normal subject; endogenous in cells; host or cells: fibroblasts from a normal subject
T1 sequence (P04062 40-536): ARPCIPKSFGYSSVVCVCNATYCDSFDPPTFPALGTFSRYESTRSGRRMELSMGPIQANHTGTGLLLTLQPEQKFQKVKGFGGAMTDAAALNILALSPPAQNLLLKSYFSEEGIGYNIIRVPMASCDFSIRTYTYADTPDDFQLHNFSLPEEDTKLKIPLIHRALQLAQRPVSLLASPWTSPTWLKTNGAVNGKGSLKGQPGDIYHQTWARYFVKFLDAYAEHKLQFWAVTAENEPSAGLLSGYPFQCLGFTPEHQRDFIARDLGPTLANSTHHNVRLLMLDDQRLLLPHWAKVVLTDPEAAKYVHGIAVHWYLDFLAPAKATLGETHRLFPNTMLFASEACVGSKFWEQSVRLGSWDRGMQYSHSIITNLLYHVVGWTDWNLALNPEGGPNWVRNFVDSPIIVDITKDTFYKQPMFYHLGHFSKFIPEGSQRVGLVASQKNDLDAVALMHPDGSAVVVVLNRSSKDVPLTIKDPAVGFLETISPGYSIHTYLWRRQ
Description: Cells seeded in 48-well plates were incubated with the indicated concentrations of compound for 16-24 hours. For the dose-response assays, cells were incubated with the in situ substrate 5-(pentafluorobenzoylamino)fluorescein di-β-D-glucopyranoside (PFBFDβGlu) for 1 hour and subsequently lysed to determine the extent of substrate hydrolysis in the presence of compound. […] Inhibition was determined as the ratio of activity in the presence of compound to that in the absence of compound. […] Cells were washed extensively and incubated in drug-free medium to allow net compound efflux from cells. Cells were then tested for lysosomal GCase activity at 2 hour intervals over a total period of 8 hours following compound removal. The increase in activity over time was fitted with a single exponential function to determine the compound's washout time.

[2] = Compound concentration in brain, spleen and plasma samples of GCase enhancement study; type: in vivo, mice (C57BL/6); settings: nine doses
Description: The ability of orally administered test compounds (the hydrochloride salt form of Compound A and Compound B) to elevate GCase levels as compared to reference compound, IFG-tartrate, was assessed in mice. […] Seven animals were used per dose. The dosing solutions were prepared in water. Compounds were administered over 2 weeks as follows: week 1, Mon-Fri (On), Sat-Sun (Off); week 2, Mon-Thu (On); necropsy on Friday. Thus, a total of 9 doses (dosing solutions prepared fresh every day) were given to each mouse, with a 24-hour washout between the last dose and necropsy.
Plasma was collected by spinning blood at 2700 g for 10 minutes at 4° C. Liver, spleen, lung, and brain tissues were removed, washed in cold PBS, blotted dry, flash frozen on dry ice, and stored at −80° C. until analysis. GCase levels were measured by homogenizing approximately 50 mg tissue in 500 μL McIlvane (MI) buffer (100 mM sodium citrate, 200 mM sodium phosphate dibasic, 0.25% sodium taurocholate, and 0.1% Triton X-100, pH 5.2) at pH 5.2 for 3-5 seconds on ice with a micro homogenizer. Homogenates were then incubated at room temperature without and with 2.5 mM conduritol-B-epoxide (CBE) for 30 min. Finally, 3.7 mM 4-methylumbeliferryl-β-glucoside (4-MUG) substrate was added and incubated at 37° C. for 60 min. Reactions were stopped by addition of 0.4 M glycine, pH 10.6. Fluorescence was measured on a plate reader for 1 sec/well using 355 nm excitation and 460 nm emission. Total protein was determined in lysates using the MicroBCA kit according to the manufacturer's instructions. A 4-methylumbelliferone (4-MU) standard curve ranging from 1.0 nM to 50 μM was run in parallel for conversion of raw fluorescence data to absolute GCase activity (in the presence and absence of CBE) and expressed as nanomoles of 4-MU released per milligram of protein per hour (nmol/mg protein/hr). GCase levels and protein levels were calculated using Microsoft Excel (Redmond, Wash.) and GraphPad Prism version 4.02.

[3] = Blood brain barrier penetration after oral administration to mice; type: in vivo, mice (C57BL/6); settings: single 30 mg/kg (free base equivalent) p.o. dose, FIG. 2
Description: For this purpose, 8-week old wild-type male mice (C57BL/6) were administered a single 30 mg/kg (free base equivalent) p.o. dose of reference or test compound by gavage (n=3 mice per time point). Dosing solutions were prepared in water. After dosing, mice were euthanized with CO2 at the following time points: 0-, 0.5-, 1-, and 4-hour post-dose. […] Similarly, brains were collected from each mouse. Plasma was derived by spinning whole blood at 2700 g for 10 minutes at 4° C. followed by storage on dry ice. Whole brains were washed in cold PBS to remove contaminating blood, blotted dry, flash frozen on dry ice, and ultimately stored at −80° C. until analysis. To prepare brain samples for analysis, 50-100 mg of tissue was homogenized in […]. Samples were then clarified by centrifugation. Next, 25 μl of the brain homogenate supernatant or 25 μl of plasma were combined with 25 μl of acetonitrile:water (95/5). […] Between 20 and 30 μl sample was injected for analysis. […] When Compound B was analyzed, Compound A was used as internal standard (150.1/130.1). For calculating drug concentrations, raw data for plasma (ng/mL) and brain (ng/g) was converted to nM using the molecular weight of respective compounds and assuming 1 g of tissue is equivalent to 1 mL volume. Concentration as a function of time was plotted in GraphPad Prism version 4.02.

## O[C@@H]1[C@@H](CCl)CNC[C@H]1O [Compound B, (3R,4R,5S)-5-(chloromethyl)piperidine-3,4-diol]
[1]
  In Situ Washout: 2.9 ± 0.22 h
[2]; brain sample, 10 mg/kg p.o.
  Concentration in GCase assays after dilution (value in parenthesis): 0.9 nM
[2]; brain sample, 100 mg/kg p.o.
  Concentration in GCase assays after dilution (value in parenthesis): 7.6 nM
[2]; spleen sample, 10 mg/kg p.o.
  Concentration in GCase assays after dilution (value in parenthesis): 2.4 nM
[2]; spleen sample, 100 mg/kg p.o.
  Concentration in GCase assays after dilution (value in parenthesis): 8 nM
[3]
  brain levels compared to Compound A: even higher levels of Compound B were detected in brain than that observed following administration of the hydrochloride salt form of Compound A
